Test results from patent publication US10329309B2, “3-(3H-imidazo[4,5-B]pyridin-2-yl)-1H-pyrazolo[4,3-B]pyridines and therapeutic uses thereof” (Samumed, LLC, priority 2015, dated 2019).

Experiments:
Assay type in all cases: cell-based
[1] = system: Wnt activity (Sp5-Luc reporter, SW480 colon carcinoma cells); test: Screening assay for Wnt activity: Sp5-Luc reporter gene assay in SW480 cells; conditions: Homo sapiens; for inhibition at 10 µM: 10 μM compound, read-out: percent inhibition at 10 μM (given for EC50 of >10 μM); for EC50: overnight incubation, 10-point dose-response from 10 μM
Method in brief: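 SW480 cells stably carrying Sp5-Luc reporter (eight TCF/LEF sites) plated at 4,000/well in 1% FBS medium with compound (10-point 1:3 series from 10 μM, 0.1% DMSO) overnight at 37 °C. BrightGlo luminescence normalized to DMSO; EC50 by four-parameter fit, else % inhibition at 10 μM.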

SW480 colon cancer cells = test: Cell viability assay (CellTiter-Blue), four days; conditions: Homo sapiens, 96 h; for EC50: CellTiter-Blue cell viability; for inhibition at 10 µM: read-out: percent inhibition at 10 μM (given for EC50 of >10 μM)
Method in brief: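 Approximately 2×10^3 SW480 cells per well are seeded with compound (8 points, threefold steps, top 10 μM) and incubated four days at 37 °C. CellTiter-Blue is then added for about 3 h and fluorescence read. Non-linear regression gives EC50; for values beyond 10 μM, percent inhibition at that concentration is listed.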

[2] = system: primary human fibroblasts derived from IPF patients (LL29 cells), α-smooth muscle actin (αSMA); test: Inhibition of the fibrotic process: TGF-β1-treated primary human fibroblasts from IPF patients, αSMA staining; conditions: Fibroblast, 96 h, 4 days; for EC50: LL29 fibroblasts from IPF patients, TGF-β1 20 ng/mL, inhibition of fibrotic process; for inhibition at 10 µM: LL29 fibroblasts, TGF-β1 treated, read-out: percent inhibition at 10 μM (given for EC50 of >10 μM)
Method in brief: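 Compound dilutions from 10 μM down to […] are dispensed, LL29 cells added in F12 with 1% FBS, and TGF-β1 (20 ng/mL) follows after 1 h. After 4 days, live-cell αSMA positivity is measured by immunofluorescence and normalized to TGF-β1-treated wells to derive EC50.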

| SMILES | inhibition at 10 µM [1] [%] | EC50 [1] [µM] | EC50 (SW480 colon cancer cells) [µM] | inhibition at 10 µM (SW480 colon cancer cells) [%] | EC50 [2] [µM] | inhibition at 10 µM [2] [%] |
| --- | --- | --- | --- | --- | --- | --- |
| Cn1cc(-c2ccc3[nH]nc(-c4nc5c(-c6cc(F)cc(CNS(C)(=O)=O)c6)ccnc5[nH]4)c3n2)cn1 [Compound 764, N-(3-Fluoro-5-(2-(5-(1-methyl-1H-pyrazol-4-yl)-1H-pyrazolo[4,3-b]pyridin-3-yl)-3H-imidazo[4,5-b]pyridin-7-yl)benzyl)methanesulfonamide] | 20.9 | > 10 | > 10 | 0 | > 10 | 26.8 |
| CS(=O)(=O)NCc1cc(F)cc(-c2ccnc3[nH]c(-c4n[nH]c5ccc(-c6cncc(NC(=O)CC7CCNCC7)c6)nc45)nc23)c1 [Compound 769, N-(5-(3-(7-(3-Fluoro-5-(methylsulfonamidomethyl)phenyl)-3H-imidazo[4,5-b]pyridin-2-yl)-1H-pyrazolo[4,3-b]pyridin-5-yl)pyridin-3-yl)-2-(piperidin-4-yl)acetamide] | 12.1 | > 10 | > 10 | 8.5 | 4.46 |  |
| CN(C)CCNc1cc(F)cc(-c2ccnc3[nH]c(-c4n[nH]c5ccc(-c6cncc(OCCN7CCCC7)c6)nc45)nc23)c1 [Compound 786, N^1-(3-Fluoro-5-(2-(5-(5-(2-(pyrrolidin-1-yl)ethoxy)pyridin-3-yl)-1H-pyrazolo[4,3-b]pyridin-3-yl)-3H-imidazo[4,5-b]pyridin-7-yl)phenyl)-N^2,N^2-dimethylethane-1,2-diamine] |  | 6.25 | 9.87 |  | 2.9 |  |
| CN(C)CCNc1cc(F)cc(-c2ccnc3[nH]c(-c4n[nH]c5ccc(-c6cnccn6)nc45)nc23)c1 [Compound 792, N^1-(3-Fluoro-5-(2-(5-(pyrazin-2-yl)-1H-pyrazolo[4,3-b]pyridin-3-yl)-3H-imidazo[4,5-b]pyridin-7-yl)phenyl)-N^2,N^2-dimethylethane-1,2-diamine] |  | 3.93 | 4.37 |  | 2.24 |  |
| COc1cccc(-c2ccnc3[nH]c(-c4n[nH]c5ccc(-c6cncc(OC7CCNCC7)c6)nc45)nc23)c1 [Compound 1025, 3-(7-(3-Methoxyphenyl)-3H-imidazo[4,5-b]pyridin-2-yl)-5-(5-(piperidin-4-yloxy)pyridin-3-yl)-1H-pyrazolo[4,3-b]pyridine] | 39.2 | > 10 | > 10 | 15.8 | 2.91 |  |
| COc1cccc(-c2ccnc3[nH]c(-c4n[nH]c5ccc(-c6cncc(O)c6)nc45)nc23)c1 [Compound 1030, 5-(3-(7-(3-Methoxyphenyl)-3H-imidazo[4,5-b]pyridin-2-yl)-1H-pyrazolo [4,3-b]pyridin-5-yl)pyridin-3-ol] | 33.5 | > 10 | > 10 | 3 | > 10 | 48 |
| c1cc(-c2ccc3c(c2)OCO3)c2nc(-c3n[nH]c4ccc(C5CCNCC5)nc34)[nH]c2n1 [Compound 1108, 3-(7-(Benzo[d][1,3]dioxol-5-yl)-3H-imidazo[4,5-b]pyridin-2-yl)-5-(piperidin-4-yl)-1H-pyrazolo[4,3-b]pyridine] | 9.3 | > 10 | > 10 | 0 | > 10 | 0 |
| C1=C(c2ccc3[nH]nc(-c4nc5c(-c6ccc7c(c6)OCO7)ccnc5[nH]4)c3n2)CCNC1 [Compound 1109, 3-(7-(Benzo[d][1,3]dioxol-5-yl)-3H-imidazo[4,5-b]pyridin-2-yl)-5-(1,2,3,6-tetrahydropyridin-4-yl)-1H-pyrazolo[4,3-b]pyridine] | 14.5 | > 10 | > 10 | 10.9 | 6.2 |  |
| Cn1cc(-c2ccc3[nH]nc(-c4nc5c(-c6ccc(F)cc6)ccnc5[nH]4)c3n2)c(CO)n1 [Compound 1129, (4-(3-(7-(4-Fluorophenyl)-3H-imidazo[4,5-b]pyridin-2-yl)-1H-pyrazolo[4,3-b]pyridin-5-yl)-1-methyl-1H-pyrazol-3-yl)methanol] | 14.8 | > 10 | > 10 | 16.9 | 0.342 |  |
| Cn1cc(-c2ccc3[nH]nc(-c4nc5c(N6CCCCC6)ccnc5[nH]4)c3n2)c(CO)n1 [Compound 1134, (1-Methyl-4-(3-(7-(piperidin-1-yl)-3H-imidazo[4,5-b]pyridin-2-yl)-1H-pyrazolo[4,3-b]pyridin-5-yl)-1H-pyrazol-3-yl)methanol] | 4 | > 10 | > 10 | 18.1 | 0.149 |  |
| Cn1cc(-c2ccc3[nH]nc(-c4nc5c(-c6ccc7c(c6)OCO7)ccnc5[nH]4)c3n2)c(CO)n1 [Compound 1152, (4-(3-(7-(Benzo[d][1,3]dioxol-5-yl)-3H-imidazo[4,5-b]pyridin-2-yl)-1H-pyrazolo[4,3-b]pyridin-5-yl)-1-methyl-1H-pyrazol-3-yl)methanol] | 15.4 | > 10 | > 10 | 28.2 | 0.317 |  |
